The values that follow come from patent US20230219904A1 (SYNGENTA CROP PROTECTION AG, priority 2020, published 2023).

Holding throughout (format): in vivo
Holding throughout (conditions): evaluated after 13 days

Experiment [1] has as its system Amaranthus retoflexus (AMARE). Description: Post-emergence herbicidal glasshouse test (Table B1). How it is done:
(§1) Seeds of a variety of test species are sown in standard soil in pots (Lolium perenne (LOLPE), Amaranthus retoflexus (AMARE), Abutilon theophrasti (ABUTH), Setaria faberi (SETFA), Echinochloa crus-galh (ECHCG), Ipomoea hederacea (IPOHE)). After cultivation for one day (pre-emergence) or after 8 days cultivation (post-emergence) under controlled conditions in a glasshouse (at 24/16° C., day/night; 14 hours light; 65% humidity), the plants are sprayed with an aqueous spray solution derived from the formulation of the technical active ingredient in acetone/water (50:50) solution containing 0.5% Tween 20 (polyoxyethelyene sorbitan monolaurate, CAS RN 9005-64-5). Compounds are applied at 500 g/h unless otherwise indicated. The test plants are then grown in a glasshouse under controlled conditions in a glasshouse (at 24/16° C., day/night; 14 hours light; 65% humidity) and watered twice daily. After 13 days for pre and post-emergence, the test is evaluated for the percentage damage caused to the plant. The biological activities are shown in the following table on a five-point scale (5=80-100%; 4=60-79%; 3=40-59%; 2=20-39%; 1=0-19%).

Experiment [2] concerns Echinochloa crus-galh (ECHCG). Described as above. Here is the method: as §1
Experiment [3] deals with Ipomoea hederacea (IPOHE). The description is as above. Here is the method: as §1
Experiment [4] deals with Setaria faberi (SETFA). The experiment is described as above. How it is done:
as §1

The test system of experiment [5] is Abutilon theophrasti (ABUTH). In words: Pre-emergence herbicidal glasshouse test (Table B1). How it is done: as §1
The test system of experiment [6] is Amaranthus retoflexus (AMARE). The description is as above. Here is the method: as §1
The test system of experiment [7] is Echinochloa crus-galh (ECHCG). The description is as above. Here is the method:
as §1

The subject of experiment [8] is Ipomoea hederacea (IPOHE). Described as above. Here is the method:
as §1

The subject of experiment [9] is Setaria faberi (SETFA). The description is as above. Here is the method:
as §1

Each structure is given as a SMILES string.

Consider `CCOCCC(=O)Nc1c(OC(F)(F)F)ccc(C(=O)Nc2nnnn2C)c1Cl` [Compound 1.057], for which the “POST Application AMARE, percentage damage on five-point scale” value in experiment [1] (applied at 125 g/ha) was 5 (5=80-100%). Further, in experiment [2] (applied at 125 g/ha), the “POST Application ECHCG, percentage damage on five-point scale” value is given as 5 (5=80-100%). Besides, the “POST Application IPOHE, percentage damage on five-point scale” value in [3] (applied at 125 g/ha) is on record as 4 (4=60-79%). Moreover, in the experiment on Setaria faberi (SETFA) [4] (applied at 125 g/ha), the “POST Application SETFA, percentage damage on five-point scale” value is 5 (5=80-100%). Moreover, in experiment [5] (applied at 125 g/ha), the “PRE Application ABUTH, percentage damage on five-point scale” value (“PRE Application ABUTH, percentage damage” below) was 5 (5=80-100%). The “PRE Application AMARE, percentage damage on five-point scale” value (“PRE Application AMARE, percentage damage” for short) in experiment [6] (applied at 125 g/ha) is 5 (5=80-100%). Besides, in [7] (applied at 125 g/ha), the “PRE Application ECHCG, percentage damage on five-point scale” value (from here on “PRE Application ECHCG, percentage damage”) was 5 (5=80-100%). In experiment [8] (applied at 125 g/ha), the “PRE Application IPOHE, percentage damage on five-point scale” value (from here on “PRE Application IPOHE, percentage damage”) is 5 (5=80-100%). For the same compound, the “PRE Application SETFA, percentage damage on five-point scale” value (from here on “PRE Application SETFA, percentage damage”) in the experiment on Setaria faberi (SETFA) [9] (applied at 125 g/ha) is recorded as 4 (4=60-79%).
Take `Cc1nc(C)c(C(=O)Nc2c(OC(F)F)ccc(C(=O)Nc3nnnn3C)c2Cl)s1` [Compound 1.042]: in [1] (applied at 125 g/ha), the “POST Application AMARE, percentage damage on five-point scale” value is 5 (5=80-100%). Moreover, in experiment [2] (applied at 125 g/ha), the “POST Application ECHCG, percentage damage on five-point scale” value is given as 5 (5=80-100%). Besides, the “POST Application IPOHE, percentage damage on five-point scale” value in [3] (applied at 125 g/ha) was 5 (5=80-100%). Besides, in the experiment with Setaria faberi (SETFA) [4] (applied at 125 g/ha), the “POST Application SETFA, percentage damage on five-point scale” value is on record as 5 (5=80-100%). Further, the “PRE Application ABUTH, percentage damage” value in experiment [5] (applied at 125 g/ha) is recorded as 4 (4=60-79%). Besides, the “PRE Application AMARE, percentage damage” value in [6] (applied at 125 g/ha) is on record as 5 (5=80-100%). Moreover, the “PRE Application ECHCG, percentage damage” value in experiment [7] (applied at 125 g/ha) is listed as 5 (5=80-100%). In experiment [8] (applied at 125 g/ha), the “PRE Application IPOHE, percentage damage” value is recorded as 5 (5=80-100%). Also, the “PRE Application SETFA, percentage damage” value in the experiment with Setaria faberi (SETFA) [9] (applied at 125 g/ha) is 5 (5=80-100%).
Take `CCC(=O)N(C)c1c(OC(F)F)ccc(C(=O)Nc2nnnn2CC)c1Cl` [Compound 1.097]: in experiment [1] (applied at 125 g/ha), the “POST Application AMARE, percentage damage on five-point scale” value was 4 (4=60-79%). The “POST Application ECHCG, percentage damage on five-point scale” value in [2] (applied at 125 g/ha) was 4 (4=60-79%). Further, the “POST Application IPOHE, percentage damage on five-point scale” value in experiment [3] (applied at 125 g/ha) is recorded as 4 (4=60-79%). In the experiment with Setaria faberi (SETFA) [4] (applied at 125 g/ha), the “POST Application SETFA, percentage damage on five-point scale” value is listed as 5 (5=80-100%). Further, the “PRE Application ABUTH, percentage damage” value in [5] (applied at 125 g/ha) is on record as 5 (5=80-100%). For the same compound, the “PRE Application AMARE, percentage damage” value in experiment [6] (applied at 125 g/ha) was 5 (5=80-100%). Besides, the “PRE Application ECHCG, percentage damage” value in [7] (applied at 125 g/ha) is 5 (5=80-100%). The “PRE Application IPOHE, percentage damage” value in experiment [8] (applied at 125 g/ha) was 5 (5=80-100%). In the experiment with Setaria faberi (SETFA) [9] (applied at 125 g/ha), the “PRE Application SETFA, percentage damage” value is 4 (4=60-79%).
Consider `COCCCC(=O)Nc1c(OC(F)(F)F)ccc(C(=O)Nc2nnnn2C)c1Cl` [Compound 1.058], for which, in experiment [1] (applied at 125 g/ha), the “POST Application AMARE, percentage damage on five-point scale” value is reported as 4 (4=60-79%). Further, the “POST Application ECHCG, percentage damage on five-point scale” value in experiment [2] (applied at 125 g/ha) is on record as 5 (5=80-100%). Moreover, the “POST Application IPOHE, percentage damage on five-point scale” value in [3] (applied at 125 g/ha) is 4 (4=60-79%). In the experiment with Setaria faberi (SETFA) [4] (applied at 125 g/ha), the “POST Application SETFA, percentage damage on five-point scale” value is 4 (4=60-79%). For the same compound, in experiment [5] (applied at 125 g/ha), the “PRE Application ABUTH, percentage damage” value was 5 (5=80-100%). For the same compound, the “PRE Application AMARE, percentage damage” value in experiment [6] (applied at 125 g/ha) is recorded as 5 (5=80-100%). Also, in experiment [7] (applied at 125 g/ha), the “PRE Application ECHCG, percentage damage” value was 5 (5=80-100%). The “PRE Application IPOHE, percentage damage” value in experiment [8] (applied at 125 g/ha) is 5 (5=80-100%). For the same compound, the “PRE Application SETFA, percentage damage” value in the experiment on Setaria faberi (SETFA) [9] (applied at 125 g/ha) is reported as 3 (3=40-59%).
As to `CCOC(C)C(=O)Nc1c(OC(F)(F)F)ccc(C(=O)Nc2nnnn2CC)c1Cl` (stereo not drawn) [Compound 1.073], in experiment [1] (applied at 125 g/ha), the “POST Application AMARE, percentage damage on five-point scale” value is 5 (5=80-100%). In experiment [2] (applied at 125 g/ha), the “POST Application ECHCG, percentage damage on five-point scale” value is recorded as 5 (5=80-100%). Besides, the “POST Application IPOHE, percentage damage on five-point scale” value in [3] (applied at 125 g/ha) is 4 (4=60-79%). In the experiment on Setaria faberi (SETFA) [4] (applied at 125 g/ha), the “POST Application SETFA, percentage damage on five-point scale” value is on record as 5 (5=80-100%). Further, the “PRE Application ABUTH, percentage damage” value in [5] (applied at 125 g/ha) is on record as 5 (5=80-100%). Also, in experiment [6] (applied at 125 g/ha), the “PRE Application AMARE, percentage damage” value was 5 (5=80-100%). Besides, in experiment [7] (applied at 125 g/ha), the “PRE Application ECHCG, percentage damage” value is 5 (5=80-100%). In addition, the “PRE Application IPOHE, percentage damage” value in experiment [8] (applied at 125 g/ha) is 5 (5=80-100%). In addition, the “PRE Application SETFA, percentage damage” value with Setaria faberi (SETFA) [9] (applied at 125 g/ha) is 5 (5=80-100%).
For the compound `Cn1nnnc1NC(=O)c1ccc(OC(F)(F)C(F)F)c(NC(=O)C2CC2)c1Cl` [Compound 1.110], in experiment [1] (applied at 500 g/h), the “POST Application AMARE, percentage damage on five-point scale” value is 5 (5=80-100%). In experiment [2] (applied at 500 g/h), the “POST Application ECHCG, percentage damage on five-point scale” value is recorded as 5 (5=80-100%). For the same compound, the “POST Application IPOHE, percentage damage on five-point scale” value in [3] (applied at 500 g/h) is 5 (5=80-100%). Besides, in the experiment on Setaria faberi (SETFA) [4] (applied at 500 g/h), the “POST Application SETFA, percentage damage on five-point scale” value is given as 5 (5=80-100%). In [5] (applied at 500 g/h), the “PRE Application ABUTH, percentage damage” value is listed as 3 (3=40-59%). Also, the “PRE Application AMARE, percentage damage” value in experiment [6] (applied at 500 g/h) was 5 (5=80-100%). Also, the “PRE Application ECHCG, percentage damage” value in experiment [7] (applied at 500 g/h) is 5 (5=80-100%). For the same compound, the “PRE Application IPOHE, percentage damage” value in [8] (applied) is reported as 1 (1=0-19%). Further, in the experiment on Setaria faberi (SETFA) [9] (applied at 500 g/h), the “PRE Application SETFA, percentage damage” value was 5 (5=80-100%).
